# Reference: US4216324A, “1-Difluoromethyl-6,7-methylenedioxy-1,4-dihyd ro-4-oxo-3-quinolinecarboxylic acid” (E. I. Du Pont de Nemours and Company, priority 1978, dated 1980)
# Like-named read-outs stand apart in the source and are kept apart here.
# Experiments:
# [1] = system: Pseud. aeruginosa; test: In vitro minimum inhibitory concentration (MIC), tube dilution test; format: cell-based; details: Pseudomonas aeruginosa, 20 h, brain-heart infusion broth, 20hour incubation at 37° C., read-out: Minimal Inhibitory Test Conens. (MIC)
# [2] = General pharmacology screen in rats; details: in vivo, rat, doses given in mg./kg; for TD50: po
# [3] = system: Shiq. dysenteriae; test: In vitro minimum inhibitory concentration (MIC), tube dilution test; format: cell-based; details: 20 h, read-out: Minimal Inhibitory Test Conens. (MIC)
# Protocol: (§1) A. In vitro: mimimum inhibitory concentration (MIC)
# (§2) The compound was tested in a standard bacteriological tube dilution test for MIC for a variety of bacteria. Stock cultures of the bacteria listed in Table 1 were grown in bacterial culture media at 37° C. overnight and diluted in culture tubes to a previously determined concentration proper for the test. The compound was added to result in final concentrations of 10, 2, 0.4 and 0.08 μg/ml. These were incubated for 18 hours at 37° C. and then observed to determine if growth of bacteria had occurred. The lowest concentration of the compound that inhibited bacterial growth in the MIC.
# (§3) *brain-heart infusion broth, 20hour incubation at 37° C.
# [4] = system: Sal. typhimurium; test: as above; format: cell-based; details: Salmonella enterica, 20 h, brain-heart infusion broth, 20hour incubation at 37° C., read-out: Minimal Inhibitory Test Conens. (MIC)
# Protocol: as §1, §2, §3
# [5] = system: Sal. gallinarum; test: as above; format: cell-based; details: Salmonella enterica, 20 h, brain-heart infusion broth, 20hour incubation at 37° C., read-out: Minimal Inhibitory Test Conens. (MIC)
# Protocol: as §1, §2, §3
# [6] = system: Kleb. aerobacter; test: as above; format: cell-based; details: Kleb. aerobacter (20F); brain-heart infusion broth, 20hour incubation at 37° C.; read-out: Minimal Inhibitory Test Conens. (MIC)
# Protocol: as §1, §2, §3
# [7] = system: Strep. pyogenes; test: as above; format: cell-based; details: Streptococcus pyogenes; Strep. pyogenes (10V); brain-heart infusion broth, 20hour incubation at 37° C.; read-out: Minimal Inhibitory Test Conens. (MIC)
# Protocol: as §1, §2, §3
# [8] = system: Ser. marcescens; test: as above; format: cell-based; details: Serratia marcescens; Ser. marcescens (22); brain-heart infusion broth, 20hour incubation at 37° C.; read-out: Minimal Inhibitory Test Conens. (MIC)
# Protocol: as §1, §2, §3
# [9] = system: Sal. typhi; test: as above; format: cell-based; details: brain-heart infusion broth, 20hour incubation at 37° C.
# Protocol: as §1, §2, §3
# [10] = system: Proteus sp.; test: as above; format: cell-based; details: brain-heart infusion broth, 20hour incubation at 37° C., read-out: Minimal Inhibitory Test Conens. (MIC)
# Protocol: as §1, §2, §3
# [11] = system: E. coli; test: as above; format: cell-based; details: Escherichia coli, 20 h, brain-heart infusion broth, 20hour incubation at 37° C., read-out: Minimal Inhibitory Test Conens. (MIC)
# Protocol: as §1, §2, §3
# [12] = system: Sal. choleraesuis; test: as above; format: cell-based; details: Salmonella enterica, 20 h, read-out: Minimal Inhibitory Test Conens. (MIC)
# Protocol: as §1, §2, §3
# [13] = system: Bac. subtilis; test: as above; format: cell-based; details: Bacillus subtilis; Bac. subtilis (07A); brain-heart infusion broth, 20hour incubation at 37° C.; read-out: Minimal Inhibitory Test Conens. (MIC)
# Protocol: as §1, §2, §3
# [14] = system: Proteus vulgaris; test: as above; format: cell-based; details: Proteus vulgaris (14P); brain-heart infusion broth, 20hour incubation at 37° C.; read-out: Minimal Inhibitory Test Conens. (MIC)
# Protocol: as §1, §2, §3
# [15] = system: Staph. aureus; test: as above; format: cell-based; details: Staphylococcus aureus; Staph. aureus (08F); brain-heart infusion broth, 20hour incubation at 37° C.; read-out: Minimal Inhibitory Test Conens. (MIC)
# Protocol: as §1, §2, §3
# [16] = system: Aero. cloacae; test: as above; format: cell-based; details: Enterobacter cloacae; Aero. cloacae (39A); brain-heart infusion broth, 20hour incubation at 37° C.; read-out: Minimal Inhibitory Test Conens. (MIC)
# Protocol: as §1, §2, §3
smiles,measurement,setting,value
"CCn1cc(C(=O)O)c(=O)c2cc3c(cc21)OCO3 [Oxolinic Acid, oxolinic acid]",MIC,[1]; Pseud. aeruginosa (11B),2 µg/mL
same,MIC,[1]; Pseud. aeruginosa (11C),2 µg/mL
same,MIC,[1]; Pseud. aeruginosa (11D),10 µg/mL
same,MIC,[1]; Pseud. aeruginosa (11G),10 µg/mL
same,MIC,[1]; Pseud. aeruginosa (11I),2 µg/mL
same,MIC,[1]; Pseud. aeruginosa (11J),2 µg/mL
same,LD50 at 24 h,"[2]; oral, read-out: ED50 24-Hour Mort.",> 324 mg/kg
same,TD50,[2]; read-out: ED50 Ataxia,97 mg/kg
same,TD50,[2]; read-out: ED50 Excitation,62 mg/kg
same,TD50,[2]; read-out: ED50 Irritability,> 324 mg/kg
same,TD50,"[2]; rectal temperature, read-out: ED50 Hypertherm.",121 mg/kg
same,TD50,"[2]; rectal temperature, read-out: ED50 Hypotherm.",> 324 mg/kg
same,TD50,"[2]; vertical bar loss, read-out: ED50 Vert. Bar",187 mg/kg
same,MIC,[3],0.4 µg/mL
same,MIC,[4]; Sal. typhimurium (03A),0.4 µg/mL
same,MIC,[4]; Sal. typhimurium (03C),0.4 µg/mL
same,MIC,[4]; Sal. typhimurium (03K),< 0.08 µg/mL
same,MIC,[5]; Sal. gallinarum (04C),2 µg/mL
same,MIC,[5]; Sal. gallinarum (04D),0.4 µg/mL
same,MIC,[6],> 10 µg/mL
same,MIC,[7],< 0.08 µg/mL
same,MIC,[8],0.4 µg/mL
same,Minimal Inhibitory Test Conens. (MIC),[9]; Sal. typhi (02B),0.4 µg/mL
same,MIC,"[9]; Salmonella enterica, Sal. typhi (02A), read-out: Minimal Inhibitory Test Conens. (MIC)",0.4 µg/mL
same,MIC,[10],< 0.08 µg/mL
same,MIC,[11]; E. coli (06-2B),2 µg/mL
same,MIC,[11]; E. coli (06-2F),0.4 µg/mL
same,MIC,[11]; E. coli (06-2L),10 µg/mL
same,MIC,[11]; E. coli (06-2M),< 0.08 µg/mL
same,MIC,[11]; E. coli (06C),2 µg/mL
same,MIC,[11]; E. coli (06I),10 µg/mL
same,MIC,[11]; E. coli (06J),0.4 µg/mL
same,MIC,[11]; E. coli (06K),0.4 µg/mL
same,MIC,[11]; E. coli (06L),0.4 µg/mL
same,MIC,[11]; E. coli (06M),0.4 µg/mL
same,MIC,[11]; E. coli (06S),2 µg/mL
same,MIC,[11]; E. coli (06V),0.4 µg/mL
same,MIC,[11]; E. coli (06X),2 µg/mL
same,MIC,[11]; E.coli (06-2D),2 µg/mL
same,MIC,[12],< 0.08 µg/mL
same,MIC,[13],< 0.08 µg/mL
same,MIC,[14],2 µg/mL
same,MIC,[15],0.4 µg/mL
same,MIC,[16],< 0.08 µg/mL
